From the supplement of paper PMC10307832

Assays:
Test in all cases: relative viability (nuclei count vs DMSO), 5 days (fraction); higher = more cells survive
[1] = compound: O=C(O)c1ccc2c(c1)nc(Nc1cccc(Cl)c1)c1ccncc12 [Silmitasertib] + CCNC(=O)c1noc(-c2cc(C(C)C)c(O)cc2O)c1-c1ccc(CN2CCOCC2)cc1 [Luminespib] (partner 0.01 µM)
Outline: (§1)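 Lung cancer cell lines in 1536-well plates got either a single drug or a fixed anchor-drug dose together with five library-drug doses (not always all listed) in √10 steps, by pin tool, on the day after seeding. Nuclei were counted after 5 days, and relative viability is the treated-to-vehicle ratio of nuclei counts. Values are medians of duplicate plates.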

[2] = compound: O=C(O)c1ccc2c(c1)nc(Nc1cccc(Cl)c1)c1ccncc12 [Silmitasertib] + COc1cc2c(Oc3ccc(NC(=O)C4(C(=O)Nc5ccc(F)cc5)CC4)cc3F)ccnc2cc1OCCCN1CCOCC1 [Foretinib] (partner 0.25 µM)
Outline: as §1

Silmitasertib + OSI-027 = compound: O=C(O)c1ccc2c(c1)nc(Nc1cccc(Cl)c1)c1ccncc12 [Silmitasertib] + COc1cccc2cc(-c3nc([C@H]4CC[C@H](C(=O)O)CC4)n4ncnc(N)c34)[nH]c12 [OSI-027] (partner 0.5 µM)
Outline: as §1

[3] = compound: O=C(O)c1ccc2c(c1)nc(Nc1cccc(Cl)c1)c1ccncc12 [Silmitasertib] + Cc1nc(NC(=O)N2CCC[C@H]2C(N)=O)sc1-c1ccnc(C(C)(C)C(F)(F)F)c1 [Alpelisib] (partner 2 µM)
Outline: as §1

[4] = compound: O=C(O)c1ccc2c(c1)nc(Nc1cccc(Cl)c1)c1ccncc12 [Silmitasertib] + Nc1ncn([C@H]2C[C@H](O)[C@@H](CO)O2)c(=O)n1 [Decitabine] (partner 2 µM)
Outline: as §1

Cell Line	relative viability ([1]; first compound 0.04 µM)	relative viability ([1]; first compound 0.4 µM)	relative viability ([1]; first compound 1.265 µM)	relative viability ([1]; first compound 4 µM)	relative viability ([2]; first compound 0.04 µM)	relative viability ([2]; first compound 0.4 µM)	relative viability ([2]; first compound 1.265 µM)	relative viability ([2]; first compound 4 µM)	relative viability (Silmitasertib + OSI-027; first compound 0.04 µM)	relative viability (Silmitasertib + OSI-027; first compound 0.4 µM)	relative viability (Silmitasertib + OSI-027; first compound 1.265 µM)	relative viability (Silmitasertib + OSI-027; first compound 4 µM)	relative viability ([3]; first compound 0.04 µM)	relative viability ([3]; first compound 0.4 µM)	relative viability ([3]; first compound 1.265 µM)	relative viability ([3]; first compound 4 µM)	relative viability ([4]; first compound 0.04 µM)	relative viability ([4]; first compound 0.4 µM)	relative viability ([4]; first compound 1.265 µM)	relative viability ([4]; first compound 4 µM)
EMC-BAC-2	1.22	1.13	0.876	0.39	1.04	0.861	0.577	0.411	0.395	0.348	0.276	0.249	0.743	0.627	0.558	0.547	1.01	0.951	0.93	0.819
NCI-H661	0.959	1.04	0.838	0.825	1.1	1.01	0.892	0.884	0.864	0.593	0.635	0.577	0.784	–	0.547	0.338	0.636	0.617	0.548	0.441
LU99A	0.272	0.361	0.259	0.201	0.823	0.833	0.844	0.738	0.276	0.293	0.314	0.255	0.502	0.521	0.399	0.471	0.824	0.837	0.808	0.605
LK-2	0.168	–	0.174	0.169	1.07	–	1.08	0.818	0.266	–	0.247	0.184	1.28	0.921	0.914	0.943	0.312	–	0.194	0.21
NCI-H3122	0.104	0.0852	0.0992	0.123	0.821	0.86	0.982	0.947	0.993	0.888	0.972	0.826	0.784	0.726	0.902	0.969	0.514	0.337	0.416	0.511
NCI-H2347	0.28	–	0.48	0.236	0.612	0.762	0.885	0.561	0.414	–	0.398	0.336	1.07	0.854	0.93	0.904	0.637	0.558	0.606	0.579
NCI-H1563	0.56	0.486	–	0.521	0.96	0.952	0.879	0.974	0.773	0.773	0.779	0.681	0.922	0.734	0.923	0.92	–	–	–	–
HCC-827	0.616	–	0.524	0.355	1.09	–	1.06	1.2	0.872	–	0.702	0.736	1.03	–	1.07	1.03	0.313	–	0.153	0.292
NCI-H1666	1.04	0.955	0.708	0.634	0.954	0.964	0.693	0.6	0.812	0.732	0.652	0.615	1.03	0.781	0.61	0.505	0.804	0.67	0.498	0.656
NCI-H358	0.39	–	0.22	0.192	0.876	0.573	0.653	0.474	1.09	0.349	0.519	0.376	0.916	0.786	0.65	0.48	0.22	0.217	0.199	0.199
201T	1.03	1.03	1.12	1.28	1.2	1.19	1.09	1.21	0.821	0.631	0.719	0.462	0.908	1	1.01	1.13	0.851	0.841	0.847	0.903
PC-3 [JPC-3]	0.716	0.571	0.746	0.654	1.12	0.852	1.14	0.998	0.841	0.573	0.777	0.573	1.02	0.79	1.01	1	0.968	0.846	0.836	0.723
NCI-H2405	0.75	0.507	0.757	0.71	1.02	0.887	0.967	0.964	0.646	0.518	0.498	0.567	0.935	0.688	0.639	0.775	0.779	0.735	0.716	0.794
LXF-289	0.592	–	0.652	0.647	0.983	–	1.04	1.05	0.78	–	0.805	0.532	1.06	–	1.09	1.07	0.41	–	0.377	0.405
EKVX	0.986	0.605	0.718	0.884	0.783	0.435	0.408	0.411	0.812	0.533	0.605	0.662	1.01	0.628	0.739	0.656	0.421	–	0.374	0.299
A-427	1.04	–	1.06	0.656	1.1	–	1.13	0.869	0.617	–	0.425	0.192	1.07	–	1.28	1.05	0.525	0.554	0.461	0.421
IA-LM	–	–	–	–	1.1	0.886	1.14	0.716	–	–	–	–	0.717	0.901	0.942	0.84	–	–	–	–
ChaGo-K-1	0.586	0.57	0.566	0.607	0.99	0.731	0.876	0.971	0.602	0.456	0.567	0.353	–	–	–	–	0.526	0.486	0.463	0.509
